Laboratory results taken from PMC5905120, “An innovative immunotherapeutic strategy for ovarian cancer: CLEC10A and glycomimetic peptides” (Journal for Immunotherapy of Cancer, 2018).
Like-named read-outs stand apart in the source and are kept apart here. Bridges are numbered along the chain shown (N, C = ends). Roman numbers before positions name the chains, in order. Where no end group is shown, it is not given here.

Tests used:
[1] = test system: serum cytokines/chemokines (mouse L-308 membrane array); type: in vivo; details: 0.1 nmole/g s.c., 4 h, three animals pooled
Method: At 4 h post dose, terminal blood was pooled from 3 animals per group and prepared for serum. Shown in Fig. S3 are the relative levels of cytokines/chemokines in sera in response to injections of 0.1 (orange bars) or 1.0 nmole/g (grey bars) svL4 as compared with animals injected with PBS (blue).

CLEC9A = assay: Solid-phase binding to CLEC9A; design: species or system human; details: Fig. 2b
Method: Solid-phase binding assays were performed with streptavidin-, protein A/G-, or Nickel-coated microtiter plates (Pierce). His-tagged or Fc-fusion recombinant receptors (R&D Systems, Minneapolis, MN) were reconstituted in PBS. Sufficient receptors were added to wells to saturate the coating. His-tagged receptors were added to each well at a 5-fold excess over the stated capacity of the Ni coating to minimize non-specific binding of the peptide. Wells were washed three times with binding buffer (25 mM Tris HCl, pH 7.4, 150 mM NaCl, 0.05% Tween-20) to remove unbound receptor and 50 μL of 2 μM biotinylated peptide in binding buffer were added and allowed to incubate for 1 h. The wells were washed four times with binding buffer and then incubated with 50 μL of 1 μg/mL streptavidin conjugated with peroxidase (Sigma-Aldrich) for 1 h. […] After several minutes to allow color development, the reaction was stopped with 50 μL 1 M H3PO4 and absorbance was measured at 450 nm. Bound streptavidin was quantitated by the specific activity of peroxidase (absorbance/ng protein conjugate/min) under the conditions of the assay.
Solid-phase binding assays were performed with recombinant human receptors. […] After extensive washing, the bound receptor was measured by peroxidase conjugated to a receptor-specific antibody. […]

human ASGPR-1 = molecular target: T1, human ASGPR-1 (Homo sapiens, UniProt P07306); assay: Solid-phase binding to recombinant human ASGPR-1; details: Fig. 2a, representative of 3 independent experiments
T1 construct: purchased R&D Systems
T1 sequence (P07306 62-291 limits assumed): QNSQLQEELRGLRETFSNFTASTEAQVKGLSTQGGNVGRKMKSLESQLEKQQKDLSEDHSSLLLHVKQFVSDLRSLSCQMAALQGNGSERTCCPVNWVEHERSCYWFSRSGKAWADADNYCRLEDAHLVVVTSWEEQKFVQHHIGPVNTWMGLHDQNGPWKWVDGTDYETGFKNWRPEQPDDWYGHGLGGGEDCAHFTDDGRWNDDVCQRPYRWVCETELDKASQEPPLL
Method: Solid-phase binding assays were performed with streptavidin-, protein A/G-, or Nickel-coated microtiter plates (Pierce). His-tagged or Fc-fusion recombinant receptors (R&D Systems, Minneapolis, MN) were reconstituted in PBS. Sufficient receptors were added to wells to saturate the coating. His-tagged receptors were added to each well at a 5-fold excess over the stated capacity of the Ni coating to minimize non-specific binding of the peptide. Wells were washed three times with binding buffer (25 mM Tris HCl, pH 7.4, 150 mM NaCl, 0.05% Tween-20) to remove unbound receptor and 50 μL of 2 μM biotinylated peptide in binding buffer were added and allowed to incubate for 1 h. The wells were washed four times with binding buffer and then incubated with 50 μL of 1 μg/mL streptavidin conjugated with peroxidase (Sigma-Aldrich) for 1 h. The wells were washed five times with binding buffer and 50 μL of peroxidase substrate (1-Step™ Ultra TMB, Pierce) were added. After several minutes to allow color development, the reaction was stopped with 50 μL 1 M H3PO4 and absorbance was measured at 450 nm. Bound streptavidin was quantitated by the specific activity of peroxidase (absorbance/ng protein conjugate/min) under the conditions of the assay.
Solid-phase binding assays were performed with recombinant human receptors. Three variations of the binding assay were used in this study, all of which allowed the arms of the tetravalent peptide to have full flexibility. (i) Biotinylated peptide was bound in microtiter wells coated with streptavidin and incubated with recombinant human receptors. After extensive washing, the bound receptor was measured by peroxidase conjugated to a receptor-specific antibody. (ii) The extracellular domains of receptors, which were fused with the Fc domain of immunoglobulin IgG, were bound in wells coated with protein A/G. Biotinylated peptide was incubated with the receptors and, after extensive washing, bound peptide was measured with streptavidin conjugated with peroxidase. Or (iii), recombinant receptors with a poly-His tag were bound to Nickel-coated wells and incubated with biotinylated peptide. svL4 and sv6D contain His residues (see Table 1) and can bind to the Ni coating, which was minimized by adding sufficient poly-His-tagged receptor to saturate the Ni coating.

[2] = Antigenicity assay in mouse sera; type: in vivo; details: 1 nmole/g s.c., alternate days for 3 months; sera of 8 treated mice, Fig. 8
Method: The sequence of one arm of svL4 or sv6D was conjugated to keyhole limpet hemocyanin (KLH) and injected into rabbits at two week intervals (total of 3 injections) (New England Peptide, Inc., Gardner, MA). Two weeks after the final injection, sera were prepared. Mice were injected with a peptide every other day over a period of 3 months (total ~ 45 injections), blood was then collected by cardiac puncture and sera were prepared. Rabbit serum was diluted 1:10, whereas mouse serum was diluted 1:1 or 1:5 with PBS containing 0.05% Tween-20 (PBST). Sera were incubated in microtiter wells coated with protein A/G (Pierce) for 90 min. The wells were washed three times with PBST, and then incubated with 50 μL of 1 μM biotinylated svL4 or sv6D for 1 h. The wells were washed four times with PBST, incubated 1 h with 1 μg/mL streptavidin-peroxidase conjugate, and washed four times with PBST. Peroxidase activity was assayed as above under Binding Assays.
Fig. 8 Test for antigenicity of svL4 and sv6D. Anti-sera were generated in rabbits against KLH-conjugates of the sequences of svL4 or sv6D and diluted 1:10. Mouse sera were collected after alternate-day injections of svL4 over 3 months, diluted 1:1 with PBS and added to protein-A/G-coated wells. Biotinylated svL4 or sv6D was added to wells and bound peptide was detected with a streptavidin-peroxidase conjugate. […]

[3] = test system: serum cytokines/chemokines (mouse L-308 membrane array); assay: Serum cytokine array, healthy Balb/c mice; type: in vivo, mouse (Balb/c)
Method: Ratios of treated vs. untreated samples obtained in a separate experiment with healthy Balb/c mice are shown in the right-hand column of Table 3 for comparison. The most significant increase in the serum of healthy mice treated with the peptide was in the amount of soluble HVEM (Herpes virus entry mediator, also designated TNFRSF14), which was a prominent protein in serum and increased approximately 10-fold within 4 h after treatment. In the tumor-bearing mice, the level of soluble HVEM in treated animals was similar to that in treated healthy mice, but the level in untreated animals was higher than that in healthy control mice.

[4] = * control value negligible or low
[5] = healthy mice, separate experiment, three animals pooled
[6] = healthy mice, separate experiment, three animals pooled, * control value negligible or low

I: VQATQSNQHTPRGGGSKK-NH2 / II: VQATQSNQHTPRGGGSK / III: VQATQSNQHTPRGGGS / IV: VQATQSNQHTPRGGGS (amide I:17-IV:C, I:18-II:C, II:17-III:C) [svL4]
ratio treated/untreated serum CCL1 [1]: 2.5
ratio treated/untreated serum IL-1α [1]: 2.7
ratio treated/untreated serum IL-12p70 [1]: 3.5
ratio treated/untreated serum IL-16 [1]: 4
ratio treated/untreated serum IL-27 [1]: 4.5
ratio treated/untreated serum IL-28 [1]: 4.3
ratio treated/untreated serum IL-31 [1]: 3.5
ratio treated/untreated serum Lymphotactin [1]: ~ 3
ratio treated/untreated serum MIP-2/CXCL2 [1]: ~ 6
ratio treated/untreated serum Pentraxin3 [1]: ~ 4
ratio treated/untreated serum SPARC [1]: ~ 5
ratio treated/untreated serum TIMP-2 [1]: 3
ratio treated/untreated serum TLR2 [1]: 4.2
ratio treated/untreated serum sHVEM [1]: ~ 2
ratio treated/untreated serum IFN-γ [1, 4]: High^*
ratio treated/untreated serum Lymphotoxin-α [1, 4]: 12.5*
ratio treated/untreated serum TNFα [1, 4]: 45*
binding to CLEC9A (CLEC9A): did not bind significantly
binding to ASGPR-1 (human ASGPR-1): also to ASGPR-1
antibodies that bind the peptides in mouse sera [2]: negative
ratio treated/untreated serum CCL1 [3, 5]: No change
ratio treated/untreated serum IFN-γ [3, 5]: No change
ratio treated/untreated serum IL-1α [3, 5]: 0.86
ratio treated/untreated serum IL-12p70 [3, 5]: No change
ratio treated/untreated serum IL-16 [3, 5]: 0.57
ratio treated/untreated serum IL-27 [3, 5]: 0.55
ratio treated/untreated serum Lymphotactin [3, 5]: 2.6
ratio treated/untreated serum Lymphotoxin-α [3, 5]: 0.74
ratio treated/untreated serum MIP-2/CXCL2 [3, 5]: No change
ratio treated/untreated serum Pentraxin3 [3, 5]: 0.21
ratio treated/untreated serum SPARC [3, 5]: No change
ratio treated/untreated serum TIMP-2 [3, 5]: 0.45
ratio treated/untreated serum TLR2 [3, 5]: 0.37
ratio treated/untreated serum TNFα [3, 5]: 0.21
ratio treated/untreated serum sHVEM [3, 5]: 10
ratio treated/untreated serum IL-28 [3, 6]: High*
ratio treated/untreated serum IL-31 [3, 6]: High*
increase of soluble HVEM in serum ([3]; within 4 h after treatment): approximately 10 fold
